From US11008339B2, “Substituted pyrazole compounds containing pyrimidine and preparation method and use thereof” (Shenyang Sinochem Agrochemicals R&D Co., Ltd., priority 2015, dated 2021)
Where two headings read alike, the source gives them in different places.

Experiments:
wheat powdery mildew = assay: Protective activity in vivo (whole plant spray) against wheat powdery mildew; details: 100 mg/L, comparative test (Table 130); for inhibition at 100 µg/mL: Triticum aestivum
Procedure: (§1) The method is as followed: The whole plant is used in this test. The compound is dissolved in a proper solvent to get mother solution. The proper solvent is selected from acetone, methanol, DMF and so on according to their dissolving capability to the sample. The volume rate of solvent and testing solution (v/v) is equal to or less than 5%. […] The testing solution is sprayed to the host plant by a special plant sprayer. The plant is inoculated with fungus after 24 hours. According to the infecting characteristic of fungus, the plant is stored in a humidity chamber and then transferred into greenhouse after infection is finished. And the other plants are placed in greenhouse directly.

cucumber downy mildew = assay: Protective activity in vivo (whole plant spray) against cucumber downy mildew; details: for inhibition at 25 µg/mL: Cucumis sativus, read-out: protective activity (%) against cucumber downy mildew
Procedure: as §1

cucumber anthracnose = assay: Protective activity in vivo (whole plant spray) against cucumber anthracnose; details: for inhibition at 100 µg/mL: Cucumis sativus, read-out: protective activity (%) against cucumber anthracnose; for control against cucumber anthracnose: 6.25 ppm, protective, in vivo
Procedure: as §1

diamond back moth = assay: Bioactivity test against diamond back moth (airbrush spray, leaf disc); assay type: in vivo; details: for Insecticidal activity against diamond back moth (%): 600 mg/L, contrastive test (Table 133)
Procedure: (§2) Compounds were dissolved in mixed solvent (acetone:methanol=1:1), and diluted to required concentration with water containing 0.1% of tween 80.
(§3) Diamond back moth, armyworm, peach aphid and carmine spider mite were used as targets and the method of spraying by airbrush was used for determination of insecticidal biassays.
The method of spraying by airbrush: The cabbage leaves were made into plates of 2 cm diameter by use of punch. A test solution (0.5 ml) was sprayed by airbrush at the pressure of 0.7 kg/cm^2 to both sides of every plate. 10 Second instar larvae were put into the petri-dishes after the leaf disc air-dried and 3 replicates were set for each treatment. Then the insects were maintained in observation room (25° C., 60˜70% R.H.). Scores were conducted and mortalities were calculated after 72 h.

[1] = test system: Green peach aphids (Myzus Persicae Sulzer); assay: Bioactivity test against green peach aphid (airbrush foliar spray); assay type: in vivo; details: 100 mg/L, contrastive test (Table 134)
Procedure: as §2, §3
Method: Filter papers were put in culture dishes (Diameter=6 cm), and water was dripped on filter papers for preserving moisture. Green peach aphids (Myzus Persicae Sulzer) were maintained on cabbage. Leaves (Diameter=3 cm) of approximately 15-30 aphids were put in the culture dishes. Bioactivity tests were used the method of Airbrush Foliar Spray, pressure=10 psi (0.7 kg/cm2), spray volume=0.5 mL. The studies were conducted at […] 25±1 C in incubator cabinets with 60±5% RH. Survey the survival aphids after 48 h and calculate the death rates.

cucumber gray mold = assay: Fungicidal activity in vitro (96-well, inhibition rate) against cucumber gray mold; assay type: cell-based; details: 24 hours
corn rust = assay: Protective activity in vivo (whole plant spray) against corn rust; details: comparative test (Table 131)
Procedure: as §1

carmine spider mite = assay: Bioactivity test against carmine spider mite (airbrush spray); assay type: in vivo; details: contrastive test (Table 135)
Procedure: as §2, §3
The method: Broadbean shoots with two true leaves in pot were taken, the healthy adults of carmine spider mite were inoculated to the leaves. The adults were counted and then sprayed with airbrush at the pressure of 0.7 kg/cm^2 and at dose of 0.5 ml. 3 replicates were set for each treatment. And then they were maintained in standard observation room. Scores were conducted and mortalities were calculated after 72 hrs.

rice blast = assay: microbe, parasite or virus in culture; assay type: cell-based; details: Pyricularia oryzae, 24 h, read-out: inhibition rate against rice blast
[2] = 25 mg/L, comparative test (Table 129)
[3] = 100 mg/L, comparative test (Table 132)

FC(F)(F)c1ccc(-n2ccc(OCCCNc3ncnc4scc(Cl)c34)n2)cc1 [Compound 128-69]
protective activity (%) against wheat powdery mildew (wheat powdery mildew): 100%

Fc1ccc(-n2ccc(OCCNc3ncnc4ccccc34)n2)cc1 [Compound 40-4]
protective activity (%) against cucumber downy mildew (cucumber downy mildew; [2]): 100%

c1ccc(-n2ccc(OCCNc3ncnc4ccccc34)n2)cc1 [Compound 40-1]
protective activity (%) against cucumber downy mildew (cucumber downy mildew; [2]): 70%

Clc1ccc(-n2ccc(OCCNc3ncnc4ccccc34)n2)cc1 [Compound 40-19]
protective activity (%) against cucumber anthracnose (cucumber anthracnose; [3]): 100% | protective activity (%) against cucumber downy mildew (cucumber downy mildew; [2]): 96%

Cc1c(Cl)ncnc1NCCCOc1ccn(-c2ccc(C(F)(F)F)cc2)n1 [Compound 122-69]
protective activity (%) against cucumber anthracnose (cucumber anthracnose; [3]): 85% | protective activity (%) against wheat powdery mildew (wheat powdery mildew): 100%

CCc1ncnc(NCCCOc2ccn(-c3ccc(C(F)(F)F)cc3)n2)c1Cl [Compound 125-69]
protective activity (%) against wheat powdery mildew (wheat powdery mildew): 100%

Clc1ccc(-n2ccc(OCCNc3ncnc4ccccc34)n2)c(Cl)c1 [Compound 40-21]
protective activity (%) against cucumber downy mildew (cucumber downy mildew; [2]): 100%

Cc1ncnc(NCCOc2ccn(-c3ccc(Cl)cc3)n2)c1Cl [Compound 31-19]
inhibition at 100 µg/mL (cucumber anthracnose): 90% | inhibition at 25 µg/mL (cucumber downy mildew): 100%

Cc1ccc(-n2ccc(OCCNc3ncnc4ccccc34)n2)cc1 [Compound 40-57]
protective activity (%) against cucumber anthracnose (cucumber anthracnose; [3]): 98% | control against cucumber anthracnose (cucumber anthracnose): 90%

COc1c(Cl)ncnc1NCCCOc1ccn(-c2ccc(C(F)(F)F)cc2)n1 [Compound 123-69]
protective activity (%) against cucumber anthracnose (cucumber anthracnose; [3]): 90% | protective activity (%) against wheat powdery mildew (wheat powdery mildew): 100%

CC(COc1ccn(-c2ccc(Cl)cc2)n1)Nc1ncnc(Cl)c1Cl (stereo not drawn) [Compound 35-19]
protective activity (%) against wheat powdery mildew (wheat powdery mildew): 70% | protective activity (%) against cucumber downy mildew (cucumber downy mildew; [2]): 100%

Clc1cc(Cl)c(-n2ccc(OCCNc3ncnc4ccccc34)n2)c(Cl)c1 [Compound 40-30]
protective activity (%) against cucumber downy mildew (cucumber downy mildew; [2]): 100%

FC(F)(F)c1ccc(-n2ccc(OCCCNc3ncnc4ccccc34)n2)cc1 [Compound 127-69]
protective activity (%) against cucumber anthracnose (cucumber anthracnose; [3]): 92% | protective activity (%) against wheat powdery mildew (wheat powdery mildew): 100% | protective activity (%) against cucumber downy mildew (cucumber downy mildew; [2]): 70%

Cc1cc(N(C)Cc2c(C)nn(-c3ccccc3)c2C)nc(C)n1 [CK5]
Insecticidal activity against diamond back moth (%) (diamond back moth): 0% | Insecticidal activity against peach aphid (%) [1]: 22% | inhibition at 100 µg/mL (cucumber anthracnose; [3]): 0% | inhibition at 25 ppm (cucumber gray mold): 0% | control effect against corn rust (%) (corn rust; 25 mg/L): 60% | control effect against corn rust (%) (corn rust; 100 mg/L): 70% | Insecticidal activity against carmine spider mite (%) (carmine spider mite; 600 mg/L): 58% | inhibition at 100 µg/mL (wheat powdery mildew): 0% | inhibition at 25 µg/mL (cucumber downy mildew; [2]): 0% | inhibition at 25 ppm (rice blast): 0%

Clc1ccccc1-n1ccc(OCCNc2ncnc3ccccc23)n1 [Compound 40-17]
melting point: 186.6 °C | inhibition at 25 µg/mL (cucumber downy mildew): 70%

Clc1ccccc1-n1ccc(OCCNc2ncnc3scc(Cl)c23)n1 [Compound 42-17]
protective activity (%) against cucumber downy mildew (cucumber downy mildew; [2]): 100%

Clc1csc2ncnc(NCCOc3ccn(-c4ccccc4)n3)c12 [Compound 42-1]
protective activity (%) against cucumber anthracnose (cucumber anthracnose; [3]): 95% | control against cucumber anthracnose (cucumber anthracnose): 90% | protective activity (%) against cucumber downy mildew (cucumber downy mildew; [2]): 100%

FC(F)(F)c1ccc(-n2ccc(OCCNc3ncnc4scc(Cl)c34)n2)cc1 [Compound 42-69]
protective activity (%) against cucumber anthracnose (cucumber anthracnose; [3]): 95% | control effect against corn rust (%) (corn rust; 25 mg/L): 85% | control effect against corn rust (%) (corn rust; 100 mg/L): 90% | protective activity (%) against wheat powdery mildew (wheat powdery mildew): 100% | protective activity (%) against cucumber downy mildew (cucumber downy mildew; [2]): 80%

Clc1ccc(-n2ccc(OCCNc3ncnc4scc(Cl)c34)n2)c(Cl)c1 [Compound 42-21]
protective activity (%) against cucumber downy mildew (cucumber downy mildew; [2]): 100%

Cc1cc(N(C)Cc2cnn(-c3ccccc3)c2)nc(C(C)C)n1 [CK4]
Insecticidal activity against diamond back moth (%) (diamond back moth): 0% | Insecticidal activity against peach aphid (%) [1]: 0% | inhibition at 100 µg/mL (cucumber anthracnose; [3]): 0% | inhibition at 25 ppm (cucumber gray mold): 0% | control effect against corn rust (%) (corn rust; 25 mg/L): 0% | control effect against corn rust (%) (corn rust; 100 mg/L): 0% | Insecticidal activity against carmine spider mite (%) (carmine spider mite; 600 mg/L): 59% | inhibition at 100 µg/mL (wheat powdery mildew): 0% | inhibition at 25 µg/mL (cucumber downy mildew; [2]): 0% | inhibition at 25 ppm (rice blast): 0%

Clc1cccc(-n2ccc(OCCNc3ncnc4scc(Cl)c34)n2)c1 [Compound 42-18]
protective activity (%) against cucumber downy mildew (cucumber downy mildew; [2]): 100%

FC(F)c1ncnc(NCCCOc2ccn(-c3ccc(C(F)(F)F)cc3)n2)c1Cl [Compound 126-69]
protective activity (%) against cucumber anthracnose (cucumber anthracnose; [3]): 95% | protective activity (%) against wheat powdery mildew (wheat powdery mildew): 100% | protective activity (%) against cucumber downy mildew (cucumber downy mildew; [2]): 70%

CCc1ncnc(NCc2cnn(-c3ccccc3)c2C)c1Cl [CK1]
Insecticidal activity against diamond back moth (%) (diamond back moth): 43% | Insecticidal activity against peach aphid (%) [1]: 0% | inhibition at 25 ppm (cucumber gray mold): 0% | inhibition at 25 µg/mL (cucumber downy mildew; [2]): 20% | inhibition at 25 ppm (rice blast): 0%

CCc1ncnc(NCc2cnn(-c3ccccc3)c2C(F)(F)F)c1Cl [CK2]
Insecticidal activity against diamond back moth (%) (diamond back moth): 20% | inhibition at 25 ppm (cucumber gray mold): 0% | inhibition at 100 µg/mL (wheat powdery mildew): 50% | inhibition at 25 µg/mL (cucumber downy mildew; [2]): 20% | inhibition at 25 ppm (rice blast): 0%

CCc1ncnc(NCCOc2ccn(-c3c(Cl)cc(Cl)cc3Cl)n2)c1Cl [Compound 32-30]
protective activity (%) against wheat powdery mildew (wheat powdery mildew): 100% | protective activity (%) against cucumber downy mildew (cucumber downy mildew; [2]): 100%

CCc1ncnc(NC(C)COc2ccn(-c3ccc(Cl)cc3)n2)c1Cl (stereo not drawn) [Compound 37-19]
Insecticidal activity against diamond back moth (%) (diamond back moth): 100% | control against diamond back moth (diamond back moth; 600 ppm, mortality after 72 h): 100% | Insecticidal activity against peach aphid (%) [1]: 84% | control effect against corn rust (%) (corn rust; 25 mg/L): 90% | control effect against corn rust (%) (corn rust; 100 mg/L): 100% | Insecticidal activity against carmine spider mite (%) (carmine spider mite; 100 mg/L): 100% | Insecticidal activity against carmine spider mite (%) (carmine spider mite; 600 mg/L): 100% | protective activity (%) against wheat powdery mildew (wheat powdery mildew): 95%

Clc1cccc(-n2ccc(OCCNc3ncnc4ccccc34)n2)c1 [Compound 40-18]
protective activity (%) against cucumber downy mildew (cucumber downy mildew; [2]): 100%

CC(COc1ccn(-c2ccc(Cl)cc2)n1)Nc1ncnc2scc(Cl)c12 (stereo not drawn) [Compound 44-19]
inhibition at 25 ppm (cucumber gray mold): > 80% | Insecticidal activity against carmine spider mite (%) (carmine spider mite; 100 mg/L): 100% | Insecticidal activity against carmine spider mite (%) (carmine spider mite; 600 mg/L): 100% | inhibition at 100 µg/mL (wheat powdery mildew): 100% | inhibition at 25 µg/mL (cucumber downy mildew; [2]): 100% | inhibition at 2.8 ppm (rice blast): > 80% | inhibition at 8.3 ppm (rice blast): > 80% | inhibition at 25 ppm (rice blast): > 80%

Cc1nc(C)c(C)c(N(C)Cc2cnn(-c3ccccc3)c2)n1 [CK3]
Insecticidal activity against diamond back moth (%) (diamond back moth): 0% | Insecticidal activity against peach aphid (%) [1]: 30% | inhibition at 100 µg/mL (cucumber anthracnose; [3]): 0% | inhibition at 25 ppm (cucumber gray mold): 0% | control effect against corn rust (%) (corn rust; 25 mg/L): 0% | control effect against corn rust (%) (corn rust; 100 mg/L): 20% | Insecticidal activity against carmine spider mite (%) (carmine spider mite; 600 mg/L): 56% | inhibition at 100 µg/mL (wheat powdery mildew): 0% | inhibition at 25 µg/mL (cucumber downy mildew; [2]): 0% | inhibition at 25 ppm (rice blast): 0%

Cc1ncnc(NCCOc2ccn(-c3c(Cl)cccc3Cl)n2)c1Cl [Compound 31-23]
protective activity (%) against cucumber downy mildew (cucumber downy mildew; [2]): 100%

Cc1ncnc(NCCOc2ccn(-c3c(Cl)cc(Cl)cc3Cl)n2)c1Cl [Compound 31-30]
protective activity (%) against wheat powdery mildew (wheat powdery mildew): 98% | protective activity (%) against cucumber downy mildew (cucumber downy mildew; [2]): 100%
